In patent US5093351A, “Substituted indole, benzofuran and benzothiophene derivatives as 5-lipoxygenase inhibitors” (Du Pont Merck Pharmaceutical Company, priority 1989, dated 1992):

Experiments:
[1] = test system: arachidonic acid-induced ear edema; assay: Arachidonic acid-induced ear edema in CF1 mice, topical; assay type: in vivo; conditions: Mus musculus, 1 h, 100 μg/ear, topical in acetone just prior to 1 mg arachidonic acid, one hour after challenge
Procedure: This assay indicates a specific use in the treatment of skin diseases such as psoriasis. This assay also implies a reduction in leukotrienes caused by the compounds of the invention, and indicates the use of these compounds in other diseases where the production of leukotrienes is involved in the pathological process.
The assay is a modification of the procedure described by Young et al. (J. Invest. Dermatol. (1983) 80, 48). 1 mg of arachidonic acid is applied as an acetone solution to the inner surface of the pinna of CF1 mice. Test compound dissolved in acetone is applied to the ear just prior to the arachidonic acid challenge. One hour after challenge, 6 mm disks are removed from the ear with a biopsy punch, and the weight is determined. The results are determined as a percent inhibition of the swelling which occurs in the absence of the test compound.

5-lipoxygenase = target: T1, 5-lipoxygenase (Rattus norvegicus, UniProt P12527); assay: 5-lipoxygenase inhibition, 10,000×g supernatant from homogenized rat basophilic leukemia (RBL-1) cells; assay type: biochemical; conditions: RBL-1 10,000×g supernatant, pH 7.0, 5 min incubation with compound, 14C-arachidonic acid, 37° C., two minutes
T1 construct: endogenous in cells; host or cells: RBL-1 (rat basophilic leukemia) cells, 10,000×g supernatant of homogenate
T1 sequence (P12527 1-673): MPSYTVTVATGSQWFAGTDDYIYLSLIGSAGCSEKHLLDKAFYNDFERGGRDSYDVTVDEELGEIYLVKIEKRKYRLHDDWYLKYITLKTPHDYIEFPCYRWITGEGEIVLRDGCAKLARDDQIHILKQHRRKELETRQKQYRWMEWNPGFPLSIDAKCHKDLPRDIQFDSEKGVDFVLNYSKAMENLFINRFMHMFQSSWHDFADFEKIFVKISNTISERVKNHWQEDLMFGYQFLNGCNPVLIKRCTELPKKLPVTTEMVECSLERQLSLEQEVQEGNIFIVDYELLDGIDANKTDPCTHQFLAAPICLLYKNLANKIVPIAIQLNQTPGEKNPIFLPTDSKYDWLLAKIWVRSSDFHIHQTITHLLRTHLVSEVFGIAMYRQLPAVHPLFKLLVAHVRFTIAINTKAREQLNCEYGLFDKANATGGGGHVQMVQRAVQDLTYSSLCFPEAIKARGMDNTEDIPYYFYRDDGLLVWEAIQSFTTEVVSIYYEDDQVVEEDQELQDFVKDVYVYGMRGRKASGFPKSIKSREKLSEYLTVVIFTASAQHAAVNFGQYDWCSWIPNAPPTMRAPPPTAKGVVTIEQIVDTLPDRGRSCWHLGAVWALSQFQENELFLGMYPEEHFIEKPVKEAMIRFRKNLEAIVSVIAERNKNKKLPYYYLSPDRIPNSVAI
Procedure: The test method is a modification of the procedure developed by Jakschik et al. (Prostaglandins (1978) 16, 733; Biochem. Biophys. Res. Commun. (1980) 95, 103; Biochem. Biophys. Res. Commun. (1981) 102, 624).
The 10,000×g supernatant from homogenized RBL-1 cells was incubated with test compound in a pH 7.0 phosphate buffer for five minutes. ^14 C-arachidonic acid was added to initiate the reaction, which was allowed to continue at 37° C. for two minutes. The reaction was stopped by freezing in a dry ice/ethanol slurry, and the 5-lipoxygenase products were separated from the substrate on silica gel columns. The amount of individual lipoxygenase products produced was determined and the percent inhibition calculated.

## Cn1ccc2c(O)c(Cc3ccc4c(c3)OCO4)ccc21 [Example 1g]
[1]
  inhibition in vivo at 100 µg/ear: 54%

## Oc1c(Cc2ccccc2)ccc2sccc12 [Example 1b]
[1]
  inhibition in vivo at 100 µg/ear: 53%
5-lipoxygenase
  IC50: 130 nM

## COc1ccc(Cc2ccc3c(ccn3C)c2O)cc1 [Example 1e]
[1]
  inhibition in vivo at 100 µg/ear: 64%

## CC(=O)Oc1c(Cc2cccs2)ccc2c1ccn2C [Example 6b]
[1]
  inhibition in vivo at 100 µg/ear: 54%

## Oc1c(Cc2ccccc2)ccc2c1ccn2Cc1ccccc1 [Example 1d]
[1]
  inhibition in vivo at 100 µg/ear: 41%
5-lipoxygenase
  IC50: 42 nM

## COc1ccc(Cc2ccc3c(ccn3C)c2OC(C)=O)cc1 [Example 6c]
[1]
  inhibition in vivo at 100 µg/ear: 72%

## Cn1ccc2c(O)c(Cc3ccccc3)ccc21 [Example 1a, 1-Methyl-4-hydroxy-5-phenylmethylindole]
[1]
  inhibition in vivo at 100 µg/ear: 74%
5-lipoxygenase
  IC50: 56 nM

## CC(=O)Oc1c(Cc2ccccc2)ccc2c1ccn2C [Example 6a, 1-Methyl-4-acetoxy-5-phenylmethylindole]
[1]
  inhibition in vivo at 100 µg/ear: 72%
5-lipoxygenase
  IC50: 420 nM

## Oc1c(Cc2ccccc2)ccc2occc12 [Example 1c]
[1]
  inhibition in vivo at 100 µg/ear: 42%
5-lipoxygenase
  IC50: 400 nM
